Patent US20080009418A1, “Selective Inhibitors” (Alchemia LTD., priority 2004, published 2008)

Assays:
Human δ-opioid (DOP) = biological target: T1, Human δ-opioid (DOP) (Homo sapiens, UniProt P41143); test: Radioligand binding, human δ-opioid (DOP) membranes, FlashPlate, [3H]-Bremazocine; settings: compound at 10 μM; human δ-opioid (DOP) membranes
T1 construct: purchased Perkin Elmer Biosignal
In short: (§1)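 Cloned human receptor membranes were coated onto FlashPlate wells and incubated with radioligand and compound (added from a 0.5 mM DMSO daughter plate) for 1 hour at room temperature in the dark. Scintillation counting gave percent inhibition, with DMSO defining total and reference ligand defining non-specific binding.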

Human melanocortin (MC5) = biological target: T2, Human melanocortin (MC5) (Homo sapiens, UniProt P33032); test: Radioligand binding, human melanocortin MC5 membranes, FlashPlate, [125I]-NDP-αMSH; settings: compound at 10 μM; human melanocortin MC5 membranes
T2 construct: purchased Perkin Elmer Biosignal
In short: as §1

[1] = biological target: T3, Human melanin-concentrating hormone (MCH1) (Homo sapiens, UniProt Q99705); test: Radioligand binding, human melanin-concentrating hormone MCH1 membranes, FlashPlate, [125I]-S36057; settings: compound at 10 μM; human MCH1 membranes
T3 construct: purchased Perkin Elmer Biosignal
In short: as §1

Human opioid (ORL1) = biological target: T4, Human opioid (ORL1) (Homo sapiens, UniProt P41146); test: Radioligand binding, human opioid ORL1 membranes, FlashPlate, [125I]-Nociceptin; settings: compound at 10 μM; human ORL1 membranes
T4 construct: purchased Perkin Elmer Biosignal
In short: as §1

[2] = biological target: T5, Human neuropeptide Y (NPY-Y1) (Homo sapiens, UniProt P25929); test: Radioligand binding, human neuropeptide Y NPY-Y1 membranes, FlashPlate, [125I]-PYY; settings: compound at 10 μM; human NPY-Y1 membranes
T5 construct: purchased Perkin Elmer Biosignal
T5 sequence (P25929 1-384): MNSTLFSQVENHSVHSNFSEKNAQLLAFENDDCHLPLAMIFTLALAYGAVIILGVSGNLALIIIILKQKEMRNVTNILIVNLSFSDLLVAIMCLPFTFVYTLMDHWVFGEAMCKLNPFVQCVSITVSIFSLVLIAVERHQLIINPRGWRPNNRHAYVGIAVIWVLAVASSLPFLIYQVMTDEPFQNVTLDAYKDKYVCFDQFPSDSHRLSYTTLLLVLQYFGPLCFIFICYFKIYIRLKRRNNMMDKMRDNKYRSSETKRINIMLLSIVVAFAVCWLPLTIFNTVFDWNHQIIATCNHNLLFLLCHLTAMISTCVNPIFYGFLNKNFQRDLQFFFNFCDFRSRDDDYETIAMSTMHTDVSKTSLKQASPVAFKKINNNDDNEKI
In short: as §1

Human κ-Opioid (KOP) = biological target: T6, Human κ-Opioid (KOP) (Homo sapiens, UniProt P41145); test: Radioligand binding, human κ-opioid (KOP) membranes, filtration, [3H]-Diprenorphine; settings: compound at 10 μM; human κ-opioid (KOP) membranes
T6 construct: purchased Perkin Elmer Biosignal
In short: (§2)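 Percent inhibition of radioligand binding measured on recombinant human membranes: NK1 with [125I]-Substance P, KOP with [3H]-Diprenorphine. Incubation 1 h at room temperature, then harvest onto 0.3% PEI-soaked filters, cold Tris-HCl pH 7.4 washes and scintillation counting; non-specific binding from reference ligand wells.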

Human neurokinin (NK1) = biological target: T7, Human neurokinin (NK1) (Homo sapiens, UniProt P25103); test: Radioligand binding, human neurokinin NK1 membranes, filtration, [125I]-Substance P; settings: compound at 10 μM; human neurokinin NK1 membranes
T7 construct: purchased Perkin Elmer Biosignal
In short: as §2

Human μ-opioid (MOP) = biological target: T8, Human μ-opioid (MOP) (Homo sapiens, UniProt P35372); test: Radioligand binding, human μ-opioid (MOP) membranes, FlashPlate, [3H]-Naloxone; settings: compound at 10 μM; human μ-opioid (MOP) membranes
T8 construct: purchased Perkin Elmer Biosignal
In short: as §1

Human Melanocortin (MC4) = biological target: T9, Human Melanocortin (MC4) (Homo sapiens, UniProt P32245); test: Radioligand binding, human melanocortin MC4 membranes, FlashPlate, [125I]-NDP-αMSH; settings: compound at 10 μM; human melanocortin MC4 membranes
T9 construct: purchased Perkin Elmer Biosignal
In short: as §1

Human Melanocortin (MC3) = biological target: T10, Human Melanocortin (MC3) (Homo sapiens, UniProt P41968); test: Radioligand binding, human melanocortin MC3 membranes, FlashPlate, [125I]-NDP-αMSH; settings: compound at 10 μM; human melanocortin MC3 membranes
T10 construct: purchased Perkin Elmer Biosignal
In short: as §1

Mouse urotensin (mUR2) = biological target: T11, Mouse urotensin (mUR2) (Mus musculus, UniProt Q8VIH9); test: Radioligand binding, mouse urotensin mUR2 membranes, FlashPlate, [125I]-Urotensin II; settings: compound at 10 μM; mouse urotensin mUR2 membranes
T11 construct: purchased Perkin Elmer Biosignal
T11 sequence (Q8VIH9 1-385): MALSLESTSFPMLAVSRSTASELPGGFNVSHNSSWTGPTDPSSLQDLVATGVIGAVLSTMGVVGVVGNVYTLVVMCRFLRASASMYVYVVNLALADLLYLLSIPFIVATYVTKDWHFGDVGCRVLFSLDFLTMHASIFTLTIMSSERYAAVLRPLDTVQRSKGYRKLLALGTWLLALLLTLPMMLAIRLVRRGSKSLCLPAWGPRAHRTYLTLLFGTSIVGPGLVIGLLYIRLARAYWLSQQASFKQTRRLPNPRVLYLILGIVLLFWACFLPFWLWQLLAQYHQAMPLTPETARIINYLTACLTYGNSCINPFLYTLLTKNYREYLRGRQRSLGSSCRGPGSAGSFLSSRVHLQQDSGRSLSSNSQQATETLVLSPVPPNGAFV
In short: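 Cloned mouse urotensin (mUR2) receptor membranes from Perkin Elmer Biosignal were immobilized in FlashPlate microplates using a proprietary coating. Each well got 19.5 μl buffer, then 0.5 μl of DMSO, reference ligand, or compound. Adding 5 μl of [125I]-Urotensin II, diluted to 5× final concentration in binding buffer, started binding. Plates were sealed with TopSeal-A and incubated 1 hour at room temperature in the dark. Wells were counted for 30 seconds each on a TopCount after a 60-second delay, and percentage inhibition was calculated.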

T10 sequence (P41968 whole entry): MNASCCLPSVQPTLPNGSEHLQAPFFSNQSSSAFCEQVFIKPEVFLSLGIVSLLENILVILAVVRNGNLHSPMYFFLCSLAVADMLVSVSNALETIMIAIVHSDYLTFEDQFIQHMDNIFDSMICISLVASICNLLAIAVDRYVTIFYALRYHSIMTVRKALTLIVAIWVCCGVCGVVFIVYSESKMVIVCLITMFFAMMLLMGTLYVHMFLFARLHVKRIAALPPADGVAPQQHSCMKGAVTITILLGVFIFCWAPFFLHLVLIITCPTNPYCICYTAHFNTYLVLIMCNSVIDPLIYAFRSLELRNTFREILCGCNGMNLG
T6 sequence (P41145 whole entry): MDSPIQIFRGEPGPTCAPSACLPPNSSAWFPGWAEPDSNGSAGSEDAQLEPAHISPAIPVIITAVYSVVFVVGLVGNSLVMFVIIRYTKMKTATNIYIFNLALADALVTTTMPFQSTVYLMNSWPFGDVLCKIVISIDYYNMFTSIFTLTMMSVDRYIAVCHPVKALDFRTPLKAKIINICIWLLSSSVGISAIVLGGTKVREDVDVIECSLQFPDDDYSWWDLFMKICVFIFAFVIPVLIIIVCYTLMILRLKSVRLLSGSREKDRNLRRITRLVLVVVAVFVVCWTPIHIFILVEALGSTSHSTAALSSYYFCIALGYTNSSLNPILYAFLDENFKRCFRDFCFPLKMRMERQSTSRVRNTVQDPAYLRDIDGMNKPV
T7 sequence (P25103 whole entry): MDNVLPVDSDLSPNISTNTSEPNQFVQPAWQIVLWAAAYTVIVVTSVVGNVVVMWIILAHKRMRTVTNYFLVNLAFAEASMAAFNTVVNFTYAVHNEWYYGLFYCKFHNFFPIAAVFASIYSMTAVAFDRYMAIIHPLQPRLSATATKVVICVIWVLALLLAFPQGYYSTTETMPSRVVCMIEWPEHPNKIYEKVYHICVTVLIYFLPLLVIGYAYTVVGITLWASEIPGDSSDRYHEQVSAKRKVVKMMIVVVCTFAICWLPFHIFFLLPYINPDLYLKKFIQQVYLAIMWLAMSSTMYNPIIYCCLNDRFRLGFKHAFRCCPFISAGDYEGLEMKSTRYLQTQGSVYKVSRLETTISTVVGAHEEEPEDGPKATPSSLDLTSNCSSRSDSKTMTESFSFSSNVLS
T4 sequence (P41146 whole entry): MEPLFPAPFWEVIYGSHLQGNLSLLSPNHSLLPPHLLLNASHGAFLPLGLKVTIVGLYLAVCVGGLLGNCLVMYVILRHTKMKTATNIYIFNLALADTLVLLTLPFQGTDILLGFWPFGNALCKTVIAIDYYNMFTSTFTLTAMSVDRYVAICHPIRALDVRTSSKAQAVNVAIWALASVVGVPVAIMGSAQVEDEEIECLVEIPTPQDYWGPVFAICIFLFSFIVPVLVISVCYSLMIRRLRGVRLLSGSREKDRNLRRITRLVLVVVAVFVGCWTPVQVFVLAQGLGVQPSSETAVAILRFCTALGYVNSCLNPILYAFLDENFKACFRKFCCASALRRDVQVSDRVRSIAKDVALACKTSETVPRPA
T3 sequence (Q99705 whole entry): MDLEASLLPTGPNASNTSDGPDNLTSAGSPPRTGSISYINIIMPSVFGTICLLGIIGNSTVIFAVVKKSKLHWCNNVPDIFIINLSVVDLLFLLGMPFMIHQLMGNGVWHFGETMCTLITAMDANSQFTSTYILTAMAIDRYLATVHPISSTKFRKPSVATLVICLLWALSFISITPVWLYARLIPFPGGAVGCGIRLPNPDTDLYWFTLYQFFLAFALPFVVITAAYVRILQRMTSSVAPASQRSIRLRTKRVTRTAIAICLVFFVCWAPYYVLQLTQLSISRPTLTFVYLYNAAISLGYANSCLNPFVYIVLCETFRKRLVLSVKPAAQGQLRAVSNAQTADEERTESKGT
T1 sequence (P41143 whole entry): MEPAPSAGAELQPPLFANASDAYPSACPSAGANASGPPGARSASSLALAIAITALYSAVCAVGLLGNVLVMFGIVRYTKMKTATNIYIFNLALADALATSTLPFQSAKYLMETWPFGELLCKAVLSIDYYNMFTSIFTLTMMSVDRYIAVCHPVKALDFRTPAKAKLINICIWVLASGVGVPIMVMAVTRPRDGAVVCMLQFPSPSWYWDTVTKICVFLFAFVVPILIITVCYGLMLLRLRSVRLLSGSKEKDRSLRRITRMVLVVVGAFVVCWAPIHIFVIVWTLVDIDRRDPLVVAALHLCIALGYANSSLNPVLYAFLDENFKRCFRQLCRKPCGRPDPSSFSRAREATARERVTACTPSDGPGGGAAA
T8 sequence (P35372 whole entry): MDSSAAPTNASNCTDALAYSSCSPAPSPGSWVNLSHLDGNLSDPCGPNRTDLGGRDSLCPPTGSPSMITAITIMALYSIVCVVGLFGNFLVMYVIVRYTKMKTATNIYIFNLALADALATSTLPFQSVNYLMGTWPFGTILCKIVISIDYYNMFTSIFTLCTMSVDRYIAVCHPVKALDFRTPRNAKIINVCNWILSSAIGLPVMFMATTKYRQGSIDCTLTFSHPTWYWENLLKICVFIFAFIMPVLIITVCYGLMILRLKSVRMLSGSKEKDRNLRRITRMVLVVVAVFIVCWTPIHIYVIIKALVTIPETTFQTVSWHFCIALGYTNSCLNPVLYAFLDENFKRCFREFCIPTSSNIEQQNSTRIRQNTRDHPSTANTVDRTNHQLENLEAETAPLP
T2 sequence (P33032 whole entry): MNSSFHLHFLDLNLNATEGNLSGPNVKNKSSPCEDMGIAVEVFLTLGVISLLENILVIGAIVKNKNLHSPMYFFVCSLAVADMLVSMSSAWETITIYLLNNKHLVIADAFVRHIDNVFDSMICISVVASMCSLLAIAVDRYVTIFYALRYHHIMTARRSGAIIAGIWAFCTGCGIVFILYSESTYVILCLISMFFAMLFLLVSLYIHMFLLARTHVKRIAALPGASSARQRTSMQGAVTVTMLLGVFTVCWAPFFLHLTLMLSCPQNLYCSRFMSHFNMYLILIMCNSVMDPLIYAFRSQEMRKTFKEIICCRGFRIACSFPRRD
T9 sequence (P32245 whole entry): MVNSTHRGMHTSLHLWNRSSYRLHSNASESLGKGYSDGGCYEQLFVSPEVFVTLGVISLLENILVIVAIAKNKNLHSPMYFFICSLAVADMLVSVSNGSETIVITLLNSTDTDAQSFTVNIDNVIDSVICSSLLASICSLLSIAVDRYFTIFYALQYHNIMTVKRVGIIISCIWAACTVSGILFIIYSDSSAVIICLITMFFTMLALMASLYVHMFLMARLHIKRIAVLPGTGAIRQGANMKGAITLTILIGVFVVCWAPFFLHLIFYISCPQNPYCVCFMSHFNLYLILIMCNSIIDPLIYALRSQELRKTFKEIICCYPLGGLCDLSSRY

| SMILES | A1 radioligand binding inhibition (Human δ-opioid (DOP)) | A5 radioligand binding inhibition (Human melanocortin (MC5)) | A6 radioligand binding inhibition [1] | A10 radioligand binding inhibition (Human opioid (ORL1)) | A9 radioligand binding inhibition [2] | A2 radioligand binding inhibition (Human κ-Opioid (KOP)) | A8 radioligand binding inhibition (Human neurokinin (NK1)) | A7 radioligand binding inhibition (Human μ-opioid (MOP)) | A4 radioligand binding inhibition (Human Melanocortin (MC4)) | A3 radioligand binding inhibition (Human Melanocortin (MC3)) | A11 radioligand binding inhibition (Mouse urotensin (mUR2)) |
| --- | --- | --- | --- | --- | --- | --- | --- | --- | --- | --- | --- |
| COC[C@H]1OC(OCCc2ccccc2)[C@H](NC(=O)CNC(=N)N)[C@@H](OCc2ccc(-c3ccccc3)cc2)[C@@H]1O (stereo partly drawn) [compound 40] | − (“−” indicates less than 50% inhibition at 10 μM) | + (“+” indicates greater than 50% inhibition at 10 μM) | + (“+” indicates greater than 50% inhibition at 10 μM) | − (“−” indicates less than 50% inhibition at 10 μM) | − (“−” indicates less than 50% inhibition at 10 μM) | − (“−” indicates less than 50% inhibition at 10 μM) | − (“−” indicates less than 50% inhibition at 10 μM) | − (“−” indicates less than 50% inhibition at 10 μM) | + (“+” indicates greater than 50% inhibition at 10 μM) | + (“+” indicates greater than 50% inhibition at 10 μM) | − (“−” indicates less than 50% inhibition at 10 μM) |
| COC[C@H]1OC(OCCc2ccccc2)[C@H](NC(=O)CCNC(=N)N)[C@@H](OCc2ccc(-c3ccccc3)cc2)[C@@H]1O (stereo partly drawn) [compound 41] | − (“−” indicates less than 50% inhibition at 10 μM) | + (“+” indicates greater than 50% inhibition at 10 μM) | + (“+” indicates greater than 50% inhibition at 10 μM) | − (“−” indicates less than 50% inhibition at 10 μM) | − (“−” indicates less than 50% inhibition at 10 μM) | − (“−” indicates less than 50% inhibition at 10 μM) | + (“+” indicates greater than 50% inhibition at 10 μM) | − (“−” indicates less than 50% inhibition at 10 μM) | + (“+” indicates greater than 50% inhibition at 10 μM) | − (“−” indicates less than 50% inhibition at 10 μM) | − (“−” indicates less than 50% inhibition at 10 μM) |
| COC[C@H]1OC(OCCc2ccccc2)[C@H](NC(=O)CCCN)[C@@H](OCc2ccc(-c3ccccc3)cc2)[C@@H]1O (stereo partly drawn) [compound 42] | − (“−” indicates less than 50% inhibition at 10 μM) | + (“+” indicates greater than 50% inhibition at 10 μM) | − (“−” indicates less than 50% inhibition at 10 μM) | − (“−” indicates less than 50% inhibition at 10 μM) | − (“−” indicates less than 50% inhibition at 10 μM) | − (“−” indicates less than 50% inhibition at 10 μM) | − (“−” indicates less than 50% inhibition at 10 μM) | − (“−” indicates less than 50% inhibition at 10 μM) | − (“−” indicates less than 50% inhibition at 10 μM) | − (“−” indicates less than 50% inhibition at 10 μM) | − (“−” indicates less than 50% inhibition at 10 μM) |
| COC[C@H]1OC(OCCc2ccccc2)[C@H](NC(=O)CCCNC(=N)N)[C@@H](OCc2ccc(-c3ccccc3)cc2)[C@@H]1O (stereo partly drawn) [compound 43] | − (“−” indicates less than 50% inhibition at 10 μM) | + (“+” indicates greater than 50% inhibition at 10 μM) | + (“+” indicates greater than 50% inhibition at 10 μM) | − (“−” indicates less than 50% inhibition at 10 μM) | − (“−” indicates less than 50% inhibition at 10 μM) | + (“+” indicates greater than 50% inhibition at 10 μM) | + (“+” indicates greater than 50% inhibition at 10 μM) | + (“+” indicates greater than 50% inhibition at 10 μM) | + (“+” indicates greater than 50% inhibition at 10 μM) | + (“+” indicates greater than 50% inhibition at 10 μM) | − (“−” indicates less than 50% inhibition at 10 μM) |
| COC[C@H]1OC(OCCc2ccccc2)[C@H](NC(=O)CNC(=N)N)[C@@H](OCc2ccc3ccccc3c2)[C@@H]1O (stereo partly drawn) [compound 44] | − (“−” indicates less than 50% inhibition at 10 μM) | + (“+” indicates greater than 50% inhibition at 10 μM) | − (“−” indicates less than 50% inhibition at 10 μM) | − (“−” indicates less than 50% inhibition at 10 μM) | − (“−” indicates less than 50% inhibition at 10 μM) | − (“−” indicates less than 50% inhibition at 10 μM) | − (“−” indicates less than 50% inhibition at 10 μM) | − (“−” indicates less than 50% inhibition at 10 μM) | + (“+” indicates greater than 50% inhibition at 10 μM) | − (“−” indicates less than 50% inhibition at 10 μM) | − (“−” indicates less than 50% inhibition at 10 μM) |
| COC[C@H]1OC(OCCc2ccccc2)[C@H](NC(=O)CCNC(=N)N)[C@@H](OCc2ccc3ccccc3c2)[C@@H]1O (stereo partly drawn) [compound 45] | − (“−” indicates less than 50% inhibition at 10 μM) | − (“−” indicates less than 50% inhibition at 10 μM) | − (“−” indicates less than 50% inhibition at 10 μM) | − (“−” indicates less than 50% inhibition at 10 μM) | − (“−” indicates less than 50% inhibition at 10 μM) | − (“−” indicates less than 50% inhibition at 10 μM) | + (“+” indicates greater than 50% inhibition at 10 μM) | − (“−” indicates less than 50% inhibition at 10 μM) | + (“+” indicates greater than 50% inhibition at 10 μM) | − (“−” indicates less than 50% inhibition at 10 μM) | − (“−” indicates less than 50% inhibition at 10 μM) |
